Assay results published in article PMC13250620.

Key:
[1] = Pd(0) Larock indole macrocyclisation (aryl C-Br + TES-alkyne, ArNHAc; forms Trp C3a-C3 and N1-C2 bonds); Pd(OAc)2 0.5 eq, tBu3P·HBF4 1.0 eq, DIPEA 10 eq; conditions: the molecule shown is the open-chain precursor; 16-membered ring; toluene; 20.0 mM; 110.0 °C; 12.0 h; 5 steps
[2] = Pd(0) Larock indole macrocyclisation (aryl C-Br + TES-alkyne); Pd(OAc)2 0.5 eq, tBu3P·HBF4 1.0 eq, DIPEA 10 eq for 54; 32 by previously reported procedure; conditions: the molecule shown is the open-chain precursor, 110.0 °C

Row | Structure (SMILES) | ring closure, yield over several steps [1] | further results
1 | CC[Si](C#CC[C@H](NC(=O)[C@@H]1CCCN1C(=O)[C@H](Cc1ccc(C)c(-c2ccc(NC(C)=O)c(Br)c2)c1)N1C(=O)c2ccccc2C1=O)C(=O)OC)(CC)CC [Phth-Phe(4-Me, 3-(4-NHAc-3-Br-phenyl))-Pro-Pra(TES)-OMe] | 39% | –
2 | CC[Si](C#CC[C@H](NC(=O)OC(C)(C)C)C(=O)N[C@@H](C)C(=O)N[C@@H](CC(C)C)C(=O)N[C@@H](Cc1ccc(OC)c(-c2ccc(Br)c(N)c2)c1)C(=O)OC)(CC)CC [Boc-Pra(TES)-Ala-Leu-Tyr(OMe, 3-(3-NH2-4-Br-phenyl))-OMe] | – | ring closure, isolated yield ([2]; 20-membered ring;, 12.0 h): 79%
3 | CC[Si](C#CC[C@H](NC(=O)[C@@H]1CCCN1C(=O)[C@H](Cc1cccc(-c2ccc(NC(C)=O)c(Br)c2)c1)N1C(=O)c2ccccc2C1=O)C(=O)OC)(CC)CC [Phth-Phe(3-(4-NHAc-3-Br-phenyl))-Pro-Pra(TES)-OMe] | 30% | –
4 | CC[Si](C#CC[C@H](NC(=O)[C@@H]1CCCN1C(=O)[C@H](Cc1ccc(F)c(-c2ccc(NC(C)=O)c(Br)c2)c1)NC(=O)OC(C)(C)C)C(=O)OC)(CC)CC [Boc-Phe(4-F, 3-(4-NHAc-3-Br-phenyl))-Pro-Pra(TES)-OMe] | 31% | –
5 | CC[Si](C#CC[C@H](NC(=O)[C@@H]1CCCN1C(=O)[C@H](Cc1cc(F)cc(-c2ccc(NC(C)=O)c(Br)c2)c1)N1C(=O)c2ccccc2C1=O)C(=O)OC)(CC)CC [Phth-Phe(5-F, 3-(4-NHAc-3-Br-phenyl))-Pro-Pra(TES)-OMe] | 23% | –
6 | CC[Si](C#CC[C@H](NC(=O)[C@@H]1CCCN1C(=O)[C@H](Cc1ccc(OC)c(-c2ccc(NC(C)=O)c(Br)c2)c1)NC(=O)OC(C)(C)C)C(=O)OC)(CC)CC [Boc-Tyr(OMe, 3-(4-NHAc-3-Br-phenyl))-Pro-Pra(TES)-OMe] | – | ring closure, isolated yield ([2]; 16-membered ring;): 45%
